Test results from US20260022143A1, “Cyclic Peptide Inhibitors of IL-23” (JANSSEN PHARMACEUTICA NV, priority 2022, published 2026).
pIC50: −log10 of the molar value. Starred links: 1 amine or outer side, 2 acyl side, 3 side chain; linkers in the order of their positions; H or OH if unused. Positions of bridges follow the written chain, without caps; N, C: chain ends. Non-standard residues stand in square brackets, D forms with d. Residues, ends and D or L forms follow the SMILES beside them. Groups on a side chain read outwards from the residue. *: point of attachment. Me3N+(CH2)2O(CH2)2O(CH2)2CO = C[N+](C)(C)CCOCCOCCC(=O)*; Trp(7-Me) = Cc1cccc2c(C[C@H](N)C(=O)O)c[nH]c12; Dab(NMeAc) = CC(=O)N(C)CC[C@H](N)C(=O)O; γGlu = O=C(O)[C@H](CCC(=O)[*:2])N[*:1]; 2Nal = N[C@@H](Cc1ccc2ccccc2c1)C(=O)O; AEF = NCCOc1ccc(C[C@H](N)C(=O)O)cc1; 3Pal = N[C@@H](Cc1cccnc1)C(=O)O; Pen = CC(C)(S)[C@H](N)C(=O)O; Lauroyl = CCCCCCCCCCCC(=O)*; Thp = NC1(C(=O)O)CCOCC1; X3 = C[N+](C)(C)CCCCC*; AEEA = NCCOCCOCC(=O)O; Sar = CNCC(=O)O

Key:
IL-23R = biological target: T1, IL-23R (Homo sapiens, UniProt Q5VWK5); assay: IL23R Reporter Assay; format: cell-based; settings: HEK293 cells containing IL-23R, IL-12RP1 and STAT-inducible firefly luciferase reporter; 10 ng/mL IL-23 (EC90); 5 h at 37° C.; read-out: IL23R Reporter Assay
T1 construct: host or cells: HEK293
T1 sequence (Q5VWK5 24-629): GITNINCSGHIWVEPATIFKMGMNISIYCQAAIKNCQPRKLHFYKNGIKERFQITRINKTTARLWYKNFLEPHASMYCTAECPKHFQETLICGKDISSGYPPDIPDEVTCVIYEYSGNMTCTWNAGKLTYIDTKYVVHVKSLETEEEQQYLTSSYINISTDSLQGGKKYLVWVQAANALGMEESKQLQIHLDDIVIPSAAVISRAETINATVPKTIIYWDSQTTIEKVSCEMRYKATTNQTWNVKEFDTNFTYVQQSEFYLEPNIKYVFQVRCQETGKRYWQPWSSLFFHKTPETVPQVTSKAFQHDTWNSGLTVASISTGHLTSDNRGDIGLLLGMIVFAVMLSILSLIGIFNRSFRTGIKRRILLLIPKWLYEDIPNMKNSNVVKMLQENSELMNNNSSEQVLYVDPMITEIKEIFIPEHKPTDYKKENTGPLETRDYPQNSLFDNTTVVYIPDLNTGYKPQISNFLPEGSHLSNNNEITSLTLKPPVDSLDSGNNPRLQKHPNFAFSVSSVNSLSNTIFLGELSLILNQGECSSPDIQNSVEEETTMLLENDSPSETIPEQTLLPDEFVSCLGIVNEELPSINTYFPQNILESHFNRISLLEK

[1] = Exposed Polar Surface Area (EPSA); format: physicochemical; settings: SFC on Chirex 3014 column; sample 1 mM DMSO stock; read-out: EPSA
Method in brief: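 Chirex 3014 column, 35 °C, 4 mL/min; CO2/MeOH + 20 mM NH4 formate, 5→60% modifier at 20%/min. UV/MS detection. EPSA (Å^2) from retention time vs 8-standard calibration line; duplicates; 1 mM DMSO stock injected undiluted.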

For CCCCCCCCCCCC(=O)N[C@@H](CCC(=O)NCCOCCOCC(=O)NCCOCCOCC(=O)NCCCC[C@@H]1NC(=O)[C@H](Cc2c[nH]c3c(C)cccc23)NC(=O)[C@H]([C@@H](C)O)NC(=O)[C@H](CC(=O)N(C)C)NC(=O)[C@@H](NC(=O)CCOCCOCC[N+](C)(C)C)C(C)(C)SSC(C)(C)[C@@H](C(=O)N[C@@H](Cc2ccc(OCCCCC[N+](C)(C)C)cc2)C(=O)N[C@@H](Cc2ccc3ccccc3c2)C(=O)NC2(C(=O)N[C@@H](CCCCNC(=O)COCCOCCNC(=O)COCCOCCNC(=O)CC[C@H](NC(=O)CCCCCCCCCCC)C(=O)O)C(=O)N[C@@H](CC(N)=O)C(=O)N[C@@H](Cc3cccnc3)C(=O)N(C)CC(=O)N(C)C)CCOCC2)NC1=O)C(=O)O [compound 400, cPEG3aCO-Pen(3)-N(N(Me)2)-T-7MeW-K(PEG2PEG2gEC12)-Pen(3)-TMAPF-2Nal-THP-K(PEG2PEG2gEC12)-N-3Pya-Sar-CON(Me)2] ({Me3N+(CH2)2O(CH2)2O(CH2)2CO}-[Pen]D(NMe2)T[Trp(7-Me)]K([AEEA-AEEA-γGlu-Lauroyl])[Pen]Y(X3)[2Nal][Thp]K([AEEA-AEEA-γGlu-Lauroyl])N[3Pal][Sar]-NMe2; disulfide 1-6), the pIC50 (IL-23R) was 6.54 and the EPSA [1] was 173 A^2.

CC(=O)N(C)CC[C@H](NC(=O)C1(NC(=O)[C@H](Cc2ccc3ccccc3c2)NC(=O)[C@H](Cc2ccc(OCCN)cc2)NC(=O)[C@H]2NC(=O)[C@H](CCC(=O)N(C)C)NC(=O)[C@H](Cc3c[nH]c4c(C)cccc34)NC(=O)[C@H]([C@@H](C)O)NC(=O)[C@H](CC(N)=O)NC(=O)[C@@H](NC(=O)CCOCCOCC[N+](C)(C)C)C(C)(C)SSC2(C)C)CCOCC1)C(=O)N[C@@H](CC(N)=O)C(=O)N[C@@H](Cc1cccnc1)C(=O)N(C)CC(N)=O [compound 178, cPEG3aCO-Pen(3)-N-T-7MeW-Q(N(Me)2)-Pen(3)-AEF-2Nal-THP-Dab(NMeAc)-N-3Pya-Sar-CONH2] ({Me3N+(CH2)2O(CH2)2O(CH2)2CO}-[Pen]NT[Trp(7-Me)]E(NMe2)[Pen][AEF][2Nal][Thp][Dab(NMeAc)]N[3Pal][Sar]-NH2; disulfide 1-6) gave a pIC50 (IL-23R) of 8.70 and an EPSA [1] of 154 A^2.

Work on Cc1cccc2c(C[C@@H]3NC(=O)[C@H]([C@@H](C)O)NC(=O)[C@H](CC(=O)N(C)C)NC(=O)[C@@H](NC(=O)CCOCCOCC[N+](C)(C)C)C(C)(C)SSC(C)(C)[C@@H](C(=O)N[C@@H](Cc4ccc(OCCN)cc4)C(=O)N[C@@H](Cc4ccc5ccccc5c4)C(=O)NC4(C(=O)N[C@@H](CCC(=O)N(C)C)C(=O)N[C@@H](CC(N)=O)C(=O)N[C@@H](Cc5cccnc5)C(=O)N(C)CC(N)=O)CCOCC4)NC(=O)[C@H](CCC(=O)N(C)C)NC3=O)c[nH]c12 [compound 147, cPEG3aCO-Pen(3)-N(N(Me)2)-T-7MeW-Q(N(Me)2)-Pen(3)-AEF-2Nal-THP-Q(N(Me)2)-N-3Pya-Sar-CONH2] ({Me3N+(CH2)2O(CH2)2O(CH2)2CO}-[Pen]D(NMe2)T[Trp(7-Me)]E(NMe2)[Pen][AEF][2Nal][Thp]E(NMe2)N[3Pal][Sar]-NH2; disulfide 1-6) yielded a pIC50 (IL-23R) of 8.42 and an EPSA [1] of 156 A^2.
